ChEMBL document CHEMBL3507680, “University of Dundee, Gates Library screen for HepG2 cell viability”

Experiment: Human HepG2 cell viability assay in 384 well format
Type: toxicity, cell-based
Set-up: dose 125 nL, time 70.5 hour; cytotoxicity at 70.5 h: concentration not given beside the values
Conditions: HepG2 cells, read-out: Inhibition
Compound Cc1nccc(C(=O)N2CCOC(c3nc(C(C)C)n[nH]3)C2)n1 (stereo not drawn) has a cytotoxicity at 70.5 h of -5.71%.
For COc1c(C2CCCN2C(=O)c2ccc3[nH]cnc3c2)c(C)nn1C (stereo not drawn), the cytotoxicity at 70.5 h was -0.572%.
Cc1noc(C)c1C(=O)N1CCCN(Cc2cscn2)CC1 showed a cytotoxicity at 70.5 h of -2.11%.
Work on COc1c(C2CCCN2C(=O)c2ccnc(C)n2)c(C)nn1C (stereo not drawn) yielded a cytotoxicity at 70.5 h of -12.9%.
With C1CC(NCc2nnc(C3CC3)o2)CN(Cc2noc(C3CC3)n2)C1 (stereo not drawn) the cytotoxicity at 70.5 h was -7.51%.
With COCc1cccc(CNCc2c(C)nn(C)c2N2CCOCC2)c1 the cytotoxicity at 70.5 h was -12.5%.
In the case of CCOC(C)C(=O)NCc1ccc(N(C)C)cc1 (stereo not drawn), the cytotoxicity at 70.5 h is reported as -10.8%.
Cc1oc(C)c(C(=O)N2CCN(Cc3cscn3)CC2)c1C showed a cytotoxicity at 70.5 h of -7.99%.
With O=C(CCc1ccccn1)N1CCCC1 the cytotoxicity at 70.5 h was -3.29%.
Work on Cc1cnc(C(=O)NCc2ccnc(N(C)C)c2)cn1 yielded a cytotoxicity at 70.5 h of -2.67%.
For O=C(NCCC(=O)N1CCCc2ccccc21)c1cc(F)cc(F)c1, the cytotoxicity at 70.5 h was -7.42%.
Cc1occc1C(=O)N1CCCC(c2nncn2C)C1 (stereo not drawn) showed a cytotoxicity at 70.5 h of -6.07%.
Compound Cn1cnnc1C1CCCN(C(=O)c2cc(Cl)c(Cl)n2C)C1 (stereo not drawn) has a cytotoxicity at 70.5 h of -8.15%.
Cc1nn(C)c(N2CCOCC2)c1CNCc1ccc(CO)c(F)c1 gave a cytotoxicity at 70.5 h of -0.89%.
For O=C(Cc1ccccn1)N1CCN(C(=O)CC2CCCC2)CC1, the cytotoxicity at 70.5 h was -1.56%.
Cc1ccc(N2CCCN(C(=O)CCc3nccs3)CC2)nn1 gave a cytotoxicity at 70.5 h of -8.06%.
With CCCc1noc(CNC2CCCN(Cc3noc(C4CC4)n3)C2)n1 (stereo not drawn) the cytotoxicity at 70.5 h was -3.33%.
For CCNc1cc2c(nn1)CCN(C(=O)c1ccoc1)C2, the cytotoxicity at 70.5 h was -11.9%.
O=C(CCc1nccs1)N1CCN(c2ccccn2)CC1 gave a cytotoxicity at 70.5 h of 8.13%.
CCc1n[nH]c(C2CN(Cc3nc(C4CC4)no3)CCO2)n1 (stereo not drawn) gave a cytotoxicity at 70.5 h of -3.3%.
Compound COc1c(C)cnc(CN(C)C(=O)c2cccnc2N(C)C)c1C has a cytotoxicity at 70.5 h of -0.657%.
O=C(COc1ccc2c(c1)CCC2)N1CCCC(n2cccn2)C1 (stereo not drawn) showed a cytotoxicity at 70.5 h of 15.3%.
Compound O=C(COCCc1ccccc1)N1CCCC(n2cccn2)C1 (stereo not drawn) has a cytotoxicity at 70.5 h of -6.79%.
Work on O=C(c1cccc2c1OCO2)N1CCCCC1Cn1cccn1 (stereo not drawn) yielded a cytotoxicity at 70.5 h of -10.8%.
With Cc1nc2n(n1)CC(NCc1nc(-c3cccnc3)no1)CC2 (stereo not drawn) the cytotoxicity at 70.5 h was -7.76%.
In the case of CCOc1ncccc1C(=O)N1CCCC(n2nc(C)nc2C)C1 (stereo not drawn), the cytotoxicity at 70.5 h is reported as -11.7%.
With O=C(CCNC(=O)c1ccoc1)Nc1ccccc1F the cytotoxicity at 70.5 h was -8.3%.
With O=C(CCNC(=O)c1ccoc1)Nc1ccc(F)cc1F the cytotoxicity at 70.5 h was -10.2%.
COc1ccc(C2CCCN2C(=O)Nc2ccc(OC)nc2)cc1 (stereo not drawn) showed a cytotoxicity at 70.5 h of -7.84%.
COCCOc1ccc(NC(=O)N2CCCC2c2ccsc2)cn1 (stereo not drawn) showed a cytotoxicity at 70.5 h of -5.25%.
With COc1c(C)cnc(CN(C)C(=O)c2ccccn2)c1C the cytotoxicity at 70.5 h was 15.4%.
In the case of COc1c(C)cnc(CN(C)C(=O)c2ccccc2O)c1C, the cytotoxicity at 70.5 h is reported as 0.1%.
Compound CC(NC(=O)NCCCOc1ccccc1F)c1nncn1C (stereo not drawn) has a cytotoxicity at 70.5 h of -7.39%.
Work on Cc1nn(C)c(C)c1NC(=O)CN1CCOC(Cn2cccn2)C1 (stereo not drawn) yielded a cytotoxicity at 70.5 h of -1.52%.
Cc1cnn(C2CCCN(C(=O)COc3ccc(C(N)=O)cc3)C2)c1 (stereo not drawn) showed a cytotoxicity at 70.5 h of -9.97%.
With O=C(c1ccccc1N1CCOCC1)N1CCCC1Cn1cccn1 (stereo not drawn) the cytotoxicity at 70.5 h was -4.2%.
With CCc1nccn1C1CCCN(C(=O)c2cnc3onc(C)c3c2)C1 (stereo not drawn) the cytotoxicity at 70.5 h was -2.35%.
NC(=O)c1cccc(OCC(=O)N2CCCC(n3cccn3)C2)c1 (stereo not drawn) showed a cytotoxicity at 70.5 h of 3.84%.
Compound Cc1cc(C)n(C2CCCN(C(=O)c3c[nH]c(=O)c(Cl)c3)C2)n1 (stereo not drawn) has a cytotoxicity at 70.5 h of -8.77%.
Work on Cc1nc(C)n(C2CCCN(C(=O)c3cccnc3NC(C)C)C2)n1 (stereo not drawn) yielded a cytotoxicity at 70.5 h of -9.03%.
For Cc1nc(C)n(C2CCCN(C(=O)c3cccc4[nH]ncc34)C2)n1 (stereo not drawn), the cytotoxicity at 70.5 h was -6.19%.
CCCc1n[nH]c(C2CN(Cc3nnc(C4CC4)n3C)CCO2)n1 (stereo not drawn) showed a cytotoxicity at 70.5 h of -5.29%.
For Cc1oc(-c2ccco2)nc1CC(=O)N1CCN(CC(C)O)CC1 (stereo not drawn), the cytotoxicity at 70.5 h was 11.6%.
For CC(C)c1nc(CN2CCCC(O)C2)cs1 (stereo not drawn), the cytotoxicity at 70.5 h was 13.1%.
CNC(=O)CN1CCCC(Cc2ccccc2OC)C1 (stereo not drawn) gave a cytotoxicity at 70.5 h of 5.69%.
Compound Cc1oc(-c2ccco2)nc1CC(=O)N1CCC(CCO)C1 (stereo not drawn) has a cytotoxicity at 70.5 h of -11%.
Work on CCn1ncc2c1CCCC2NCc1ccc(C)s1 (stereo not drawn) yielded a cytotoxicity at 70.5 h of -4.74%.
Compound Cc1c(Cl)c(CN2CCCC2Cn2cncn2)nc2ccccc12 (stereo not drawn) has a cytotoxicity at 70.5 h of -6.2%.
With CC(C)c1nccn1C1CCCN(C(=O)c2ccc3c(c2)COC3)C1 (stereo not drawn) the cytotoxicity at 70.5 h was -8.53%.
With COc1ccc(Cl)cc1CS(=O)(=O)CC(=O)N(C)Cc1ccccc1F the cytotoxicity at 70.5 h was -12.1%.
In the case of Cc1csc(CNC(=O)N(C)Cc2ccc3c(c2)OCCO3)n1, the cytotoxicity at 70.5 h is reported as -10.6%.
Work on CCN(Cc1ccc2c(c1)OCO2)C(=O)NCc1nc(C)cs1 yielded a cytotoxicity at 70.5 h of -9.62%.
In the case of CCN(Cc1ccc2c(c1)OCCO2)C(=O)NCc1csc(C)n1, the cytotoxicity at 70.5 h is reported as -9.9%.
CCOc1ccc(CC(CNC(=O)c2ccco2)C(N)=O)cc1 (stereo not drawn) gave a cytotoxicity at 70.5 h of -6.1%.
Work on COc1ccccc1CC1CCCN(CC(=O)NC2CC2)C1 (stereo not drawn) yielded a cytotoxicity at 70.5 h of -8.21%.
In the case of CNC(=O)NC(=O)CN1CCCC(Cc2ccccc2OC)C1 (stereo not drawn), the cytotoxicity at 70.5 h is reported as -6.62%.
Work on CC(C)c1nnc2n1CCN(C(=O)c1ccc(OCC3CC3)cc1)C2 yielded a cytotoxicity at 70.5 h of -6.55%.
Cc1cc(NC(=O)CN2CCn3c(nnc3C(C)C)C2)on1 showed a cytotoxicity at 70.5 h of -0.984%.
